Values of other authors as cited in patent US8592371B2, “Aminotetrahydropyrans as dipeptidyl peptidase-IV inhibitors for the treatment or prevention of diabetes” (Merck Sharp & Dohme Corp, priority 2008, dated 2013).

Legend:
[1] = tested on: cardiac allograft; conditions: rats; from day 7 to day 14; cited from earlier work
[2] = tested on: hematopoiesis; conditions: mouse, cyclophosphamide-induced neutropenia; cited from earlier work
[3] = molecular target: DPP-4 (Homo sapiens (Human), UniProt P27487); conditions: cited from earlier work
Chain of DPP-4 (P27487 39-766, species assumed): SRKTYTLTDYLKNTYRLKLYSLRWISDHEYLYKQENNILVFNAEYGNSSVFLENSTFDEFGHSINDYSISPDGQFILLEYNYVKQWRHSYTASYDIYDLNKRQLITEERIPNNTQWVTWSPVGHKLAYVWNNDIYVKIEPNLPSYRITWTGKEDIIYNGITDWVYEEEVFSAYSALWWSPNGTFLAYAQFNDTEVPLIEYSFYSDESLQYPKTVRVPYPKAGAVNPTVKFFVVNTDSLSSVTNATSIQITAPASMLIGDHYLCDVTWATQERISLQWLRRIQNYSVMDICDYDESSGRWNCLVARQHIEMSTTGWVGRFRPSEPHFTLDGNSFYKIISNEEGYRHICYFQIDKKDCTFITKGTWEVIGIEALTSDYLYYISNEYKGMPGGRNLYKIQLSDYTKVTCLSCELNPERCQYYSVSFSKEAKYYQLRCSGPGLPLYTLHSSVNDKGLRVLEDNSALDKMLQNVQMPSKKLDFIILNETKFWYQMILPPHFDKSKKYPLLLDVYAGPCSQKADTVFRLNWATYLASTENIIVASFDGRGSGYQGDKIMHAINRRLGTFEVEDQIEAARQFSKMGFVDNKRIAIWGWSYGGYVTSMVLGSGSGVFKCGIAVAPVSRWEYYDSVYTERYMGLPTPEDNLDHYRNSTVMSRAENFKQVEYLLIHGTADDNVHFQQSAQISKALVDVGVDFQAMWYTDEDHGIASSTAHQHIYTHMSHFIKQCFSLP

CC(C)N1CCC(c2ccccc2)(c2ccccc2)CC1 [Prodipine, Pro-Pro-diphenyl-phosphonate]
cardiac allograft survival [1]: double

CC(C)[C@H](N)C(=O)N1CCC[C@H]1B(O)O [Val-Boro-Pro]
hematopoiesis [2]: stimulated hematopoiesis

diprotin A
degradation of GRF in plasma to GRF[3-44] [3]: prevented
